In article PMC7690883, “Pseudoceratonic Acid and Moloka’iamine Derivatives from the Red Sea Verongiid Sponge Pseudoceratina arabica” (Marine Drugs, 2020):
Values after ≈ are worked out from the molar mass of the structure shown. Where two headings read alike, the source gives them in different places.

Legend:
Assay type in all cases: cell-based
[1] = tested on: E. coli; assay: MIC determination (dilution method), E. coli; details: Escherichia coli; Mueller Hinton Broth, 48 h at 37 °C
Description: (§1) The minimal inhibitory concentrations (MICs) of the compounds were evaluated using a […] method (Table 3).
(§2) The MIC values of the compounds were determined of using a macrodilution method. Briefly, the compounds were dissolved in MeOH at a final concentration of 2000 µg/mL. Ciprofloxacin and ketoconazole were dissolved in H2O at final concentrations of 100 µg/mL. Syringe filters (0.2 µm) were used for sterilization of all stock solutions. Two-fold serial dilutions of the solutions were used in Mueller Hinton Broth (MHB) to give concentrations of 1.0–1000 µg/mL (for the compounds) and 0.125–64 µg/mL (for ciprofloxacin and ketoconazole). 500 µL from the 10^6 CFU/mL microbial suspensions were added in sterile tubes to give inoculua of 5 × 10^5 CFU/mL. Further, 100 µL of the stock solutions of the compounds and antibiotics were added into the tubes. Control tubes with test microorganisms only and MeOH were prepared. […] The tubes were kept for 48 h at 37 °C.

[2] = tested on: S. aureus (ATCC 25923); assay: Disc diffusion assay, S. aureus; details: Staphylococcus aureus
Description: (§3) The antimicrobial evaluation of the compounds against E. coli, S. aureus and C. albicans at 50 µg/disc was carried out using disc diffusion assay. […] The other compounds were weakly active against the three pathogens with inhibition zones of 6–9 mm (Table 3).
(§4) Using S. aureus (ATCC 25923), E. coli (ATCC 25922), and C. albicans (ATCC 14053), a disc diffusion assay was carried out to evaluate the antimicrobial effects of 1–6 at 50 µg/disc as reported before. Ketoconazole (50 µg/disc) and ciprofloxacin (5.0 µg/disc) served as antibiotics controls.

[3] = tested on: S. aureus; assay: MIC determination (dilution method), S. aureus; details: Staphylococcus aureus; Mueller Hinton Broth, 48 h at 37 °C
Description: as §1, §2

[4] = tested on: E. coli (ATCC 25922); assay: Disc diffusion assay, E. coli; details: Escherichia coli
Description: as §3, §4

[5] = tested on: HCT 116 (colorectal carcinoma); assay: MTT cytotoxicity assay, HCT 116; details: Homo sapiens, read-out: IC50 HCT 116
Description: (§5) The cytotoxic and antiproliferative effects of the compounds against MDA-MB-231, HeLa, and HCT 116 cell lines were evaluated using MTT (3-(4,5-Dimethylthiazol-2-yl)-2,5-diphenyltetrazolium bromide) assay (Table 4).
(§6) The cell lines MDA-MB-231 (triple-negative breast cancer, ATCC HTB-26), HeLa (human cervical carcinoma, ATCC CCL-2), HCT 116 (colorectal carcinoma, ATCC CCL-247) were used for the evaluation of the cytotoxicity of the compounds. In addition, NHDF (normal human dermal fibroblasts) cells were used to evaluate the selectivity of compound 2 against the cancerous cell lines. DMEM, with Pen–Strep. (1%) and FBS (10%), was used for culturing MDA-MB-231 cells, while RPMI 1640, with Pen–Strep. (1%) and FBS (10%), was used for culturing HCT 116 and HeLa cells. Finally, NHDF cells were cultured in fibroblast basal medium complemented with Pen–Strep. (1% v/v), heat-inactivated fetal bovine serum (FBS) (2% v/v), insulin (5 µg/mL) and basic fibroblast growth factor (1 ng/mL). Culture of all cells was completed at 37 °C with 5% CO2 and 95% humidity.
(§7) The cytotoxic effects of the compounds were evaluated using MTT assay as reported earlier. Briefly, all cells kept overnight in 5% CO2/air and at 37 °C. Tested compounds were added to the upper row of a 96-well plate followed by 1:4 (v/v) serial dilutions. After 72 h incubation of the compounds with the cells (10,000 cells/well for HCT 116 and NHDF, and 12,000 cells/well for HeLa and MDA-MB-231), the cells’ viability was calculated at 490 nm as reported before. 5-Fluorouracil (5-FU) and DMSO were used as positive and negative controls. The IC50 values reported in […] represent the mean of three separate experiments. A concentration of 10 µM was set as a cutoff value in this assay.

[6] = tested on: C. albicans; assay: MIC determination (dilution method), C. albicans; details: Candida albicans, read-out: C. albicans MIC
Description: as §1, §2

[7] = tested on: C. albicans (ATCC 14053); assay: Disc diffusion assay, C. albicans; details: Candida albicans
Description: as §3, §4

[8] = tested on: NHDF (normal human dermal fibroblasts); assay: MTT cytotoxicity assay, NHDF; details: 72 h
Description: as §5, §6
The cytotoxic effects of the compounds were evaluated using MTT assay as reported earlier. […] After 72 h incubation of the compounds with the cells (10,000 cells/well for HCT 116 and NHDF, and 12,000 cells/well for HeLa and MDA-MB-231), the cells’ viability was calculated at 490 nm as reported before. […]

[9] = tested on: MDA-MB-231 (triple-negative breast cancer); assay: MTT cytotoxicity assay, MDA-MB-231; details: Homo sapiens, read-out: IC50 MDA-MB-231
Description: as §5, §6, §7

[10] = tested on: HeLa (human cervical carcinoma); assay: MTT cytotoxicity assay, HeLa; details: 72 h, read-out: IC50 HeLa
Description: as §5, §6, §7

[11] = HCT-116, MTT, 72 h, cutoff 10 µM
[12] = Mueller Hinton Broth, 48 h at 37 °C
[13] = ATCC14053, disc diffusion, 50 µg/disc (compounds and ketoconazole), read-out: C. albicans Inhibition Zone
[14] = MDA-MB-231, MTT, 72 h, cutoff 10 µM
[15] = Homo sapiens, HeLa, MTT, cutoff 10 µM
[16] = ATCC14053, read-out: C. albicans Inhibition Zone
[17] = ATCC25923, read-out: S. aureus Inhibition Zone
[18] = ATCC25922, read-out: E. coli Inhibition Zone

Compound | MIC [1] | MIC [3] | IC50 [5, 11] | IC50 [9, 14] | IC50 [10, 15] | IC50 ([5]; HCT-116, 72 h) | MIC ([6]; 48 h) | zone of inhibition at 50 µg/disc [7, 16] | zone of inhibition at 50 µg/disc [2, 17] | IC50 ([9]; MDA-MB-231, 72 h) | zone of inhibition at 50 µg/disc [4, 18] | IC50 ([10]; Homo sapiens, HeLa) | further results
O=C(O)c1cn(C2CC2)c2cc(N3CCNCC3)c(F)cc2c1=O [Ciprofloxacin, reference compound] | 0.25 µg/mL (≈ 0.754 µM) | 0.5 µg/mL (≈ 1.51 µM) |  |  |  |  |  |  |  |  |  |  | zone of inhibition at 5 µg/disc ([2]; ATCC25923, disc diffusion, ciprofloxacin 5.0 µg/disc): 22 mm; zone of inhibition at 5 µg/disc ([4]; ATCC25922, disc diffusion, ciprofloxacin 5.0 µg/disc): 30 mm
N#CC(=O)NCCCOc1c(Br)cc(CCNC=C2C(=O)C=CC2=O)cc1Br [Compound 2, ceratinine N] | 125 µg/mL (≈ 245 µM) | 125 µg/mL (≈ 245 µM) | 2.9 ± 0.18 µM | 3.1 ± 0.29 µM | 2.1 µM |  |  |  |  |  |  |  | MIC [6, 12]: 16 µg/mL (≈ 31.3 µM); zone of inhibition at 50 µg/disc [7, 13]: 16 mm; IC50 [8]: 3.5 ± 0.3 µM; zone of inhibition at 50 µg/disc ([2]; ATCC25923, disc diffusion, 50 µg/disc, read-out: S. aureus Inhibition Zone): 7 mm; zone of inhibition at 50 µg/disc ([4]; ATCC25922, disc diffusion, 50 µg/disc, read-out: E. coli Inhibition Zone): 6 mm; IC50 ([10]; MTT, cutoff 10 µM): 2.3 ± 0.16 µM
CCOC(=O)NCCCOc1c(Br)cc(CCN)cc1Br [Compound 3, ceratinine O] | 125 µg/mL (≈ 295 µM) | 64 µg/mL (≈ 151 µM) |  |  |  | 9.5 ± 0.85 µM | 64 µg/mL (≈ 151 µM) | 9 mm | 8 mm | ≥ 10 µM | 6 mm | ≥ 10 µM | 
NCCCOc1c(Br)cc(CCN)cc1Br [Compound 4, moloka’iamine] | 125 µg/mL (≈ 355 µM) | 125 µg/mL (≈ 355 µM) |  |  |  | ≥ 10 µM | 125 µg/mL (≈ 355 µM) | 6 mm | 7 mm | ≥ 10 µM | 6 mm | ≥ 10 µM | 
NCCCOc1c(Br)cc(C(O)CN)cc1Br (centres unmarked) [Compound 5, hydroxymoloka’iamine] |  |  | ≥ 10 µM | ≥ 10 µM | ≥ 10 µM |  |  |  |  |  |  |  | 
O=c1[nH]cc(F)c(=O)[nH]1 [Compound 5-FU, 5-Fluorouracil, reference compound] |  |  | 4.6 ± 0.23 µM | 13 ± 0.3 µM | 12.3 ± 0.25 µM |  |  |  |  |  |  |  | 
N#CC(=O)NCCCOc1c(Br)cc(CCN)cc1Br [Compound 6, ceratinamine] | 125 µg/mL (≈ 309 µM) | 64 µg/mL (≈ 158 µM) |  |  |  | ≥ 10 µM | 32 µg/mL (≈ 79 µM) | 12 mm | 9 mm | ≥ 10 µM | 7 mm | ≥ 10 µM | 
CC(=O)N1CCN(c2ccc(OCC3COC(Cn4ccnc4)(c4ccc(Cl)cc4Cl)O3)cc2)CC1 (centres unmarked) [Ketoconazole, reference compound] |  |  |  |  |  |  |  |  |  |  |  |  | MIC [6, 12]: 0.5 µg/mL (≈ 0.941 µM); zone of inhibition at 50 µg/disc [7, 13]: 30 mm
